# Experimental data taken from US20090246273A1, “Ketorolac Sublingual Spray for the Treatment of Pain” (priority 2008, published 2009).
# Legend:
# [1] = rapid metabolism of ketorolac; background on the intravenous mode of delivery; cited from earlier work
# [2] = In vivo absorption of ketorolac spray from the sublingual cavity (plasma levels vs intravenous); parameters: species or system rabbit; conditions: rabbits
# Procedure: These experiments determine the bioavailability of ketorolac after transmucosal administration to the sublingual tissue in rabbit and compare it to that after intravenous administration.
# The transmucosal absorption of ketorolac was measured using an in vivo technique in rabbits. Following introduction of lidocaine local anesthesia, a catheter was placed in the marginal ear artery of the rabbit for blood sample collection. For intravenous administration, a catheter was placed in the marginal ear vein of the rabbit and ketorolac aqueous solution (0.5 mg/kg, 0.1 mL) was administered; a sterile drug solution was prepared by filtration (double 0.22 μm filters). A dose of […] ketorolac was injected into the marginal ear vein cannula followed by a 0.1 mL flush with 10% (v/v) heparin/normal saline solution to keep the cannula patent.
# For sublingual spray administration, the ketorolac dose (3 mg/kg, 0.1 mL) of the ketorolac formulation was applied by spray to the sublingual mucosa of the rabbit.
# Aliquot parts of 0.5 mL blood samples were collected at predetermined time points, collected into pre-heparinized tubes and immediately placed on ice. […]
# Bioavailability of sublingually administered drug was calculated by comparing the plasma drug concentration between sublingual and intravenous delivery routes and expressed as a percentage of the intravenous bioavailability. […]
smiles,measurement,setting,value
"O=C(c1ccccc1)c1ccc2n1CCC2C(=O)O (stereo not drawn) [ketorolac, 5-benzoyl-2,3-dihydro-1H-Pyrrolizine-1-carboxylic acid]",half-life,[1],4 to 5 h
same,time of peak plasma concentration following transmucosal administration,"[2]; sublingual spray 3 mg/kg single dose, n=3",approximately 10 minutes
same,absorption following transmucosal administration through the sublingual route (comparing areas under the plasma concentration versus time curves),"[2]; sublingual spray 3 mg/kg vs intravenous 0.5 mg/kg, over 180 minutes",rapidly and completely absorbed
